Measurements published in patent US4965280A, “Antifungal carbinols” (E. I. Du Pont de Nemours and Company, priority 1989, dated 1990).
In brackets after ≈: the same amount, converted by molar mass. Where two headings read alike, the source gives them in different places.

Legend:
Botrytis cinerea = assay: Example C bean grey mold; assay type: in vivo; details: Botrytis cinerea, 24 h, 100 PPM; read-out: disease control rating, Ex. C
Method in brief: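 Test compounds were taken up in acetone (6% of final volume) and suspended at 100 or 20 ppm in purified water containing 250 ppm TREM 014 surfactant (polyhydric alcohol esters). Broad bean seedlings were sprayed with this suspension until run-off.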

Puccinia recondita = assay: Example G wheat leaf rust; assay type: in vivo; details: 100 PPM, read-out: disease control rating, Ex. G
Phytophthora infestans = assay: whole plant or invertebrate; assay type: in vivo; details: Phytophthora infestans, in Solanum lycopersicum, read-out: disease control rating, Ex. H, 100 PPM
[1] = tested on: Cercosporidium personatum; assay: Example B Peanut Late Leafspot; assay type: in vivo; details: Nothopassalora personata; 100 PPM; read-out: disease control rating, Ex. B
Method in brief: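 Compounds were dissolved in acetone (6% of final volume) and suspended at 100 or 20 ppm in purified water containing 250 ppm TREM 014 surfactant (polyhydric alcohol esters). The suspension was sprayed to run-off on peanut seedlings.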

Pyricularia oryzae = assay: whole plant or invertebrate; assay type: in vivo; details: Pyricularia oryzae, 120 h, read-out: disease control rating, Ex. E, 100 PPM
[2] = tested on: Candida albicans ATCC 11651; assay: In vitro antifungal MIC, microtiter broth dilution; details: Candida albicans, ATCC11651, 24 h, read-out: MIC values, C. albicans, 30°, 24 hours
[3] = tested on: Aspergillus fumigatus ATCC 28214; assay: In vitro antifungal MIC, microtiter broth dilution; details: Aspergillus fumigatus, ATCC28214, 24 h, read-out: MIC values, A. fumigatus, 30°, 24 hours
[4] = tested on: Erysiphe graminis f. sp. tritici; assay: Example D wheat powdery mildew; assay type: in vivo; details: Blumeria graminis, 144 h; 100 PPM; read-out: disease control rating, Ex. D
Method in brief: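 Compounds were dissolved in acetone (6% of final volume), then suspended at 100 or 20 ppm in purified water containing 250 ppm TREM 014 surfactant. Wheat seedlings were sprayed with this suspension to run-off.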

Pythium aphanadermatum = assay: Example J cucumber damping off; assay type: in vivo; parameters: key to phytotoxicity entry, Ex. J: P: disease control was not measured due to phytoxicity; details: 5 kg/ha; for pest or weed control at 5000 g/ha: Pythium, 336 h, read-out: disease control rating, Ex. J
Procedure: […] Seeds and soil were then inoculated with a mixture of sand, cereal and mycelium of the fungus Pythium aphanadermatum, causal agent of cucumber damping off, and incubated in a growth chamber at 30° C. for 14 days. Disease ratings were then made.

Plasmorpara viticola = assay: Example I grape downy mildew; assay type: in vivo; details: read-out: disease control rating, Ex. I
Method in brief: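 Compounds were dissolved in acetone (6% of final volume) and suspended at 100 or 20 ppm in purified water with 250 ppm TREM 014 surfactant (polyhydric alcohol esters). Grape seedlings were sprayed with this suspension to run-off.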

Venturia inaequalis = assay: Example A apple scab; assay type: in vivo; details: 100 PPM, read-out: disease control rating, Ex. A
Method in brief: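 Test compounds were dissolved in acetone (6% of final volume) and suspended at 100 or 20 ppm in purified water containing 250 ppm of the surfactant TREM 014 (polyhydric alcohol esters). Apple seedlings were sprayed with this suspension to the point of run-off.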

[5] = tested on: Candida albicans ATCC 11651; assay: In vivo systemic Candida infection in mice, primary assay; parameters: species or system Candida albicans; CF-1 female mice; details: Candida albicans, 150 mg/kg per day, read-out: % Survival
Method in brief: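 CF-1 female mice (20 g, 10 per group) were infected IV with 0.2 ml of 1×10^7/ml C. albicans ATCC 11651, then given test compound subcutaneously at 50 or 150 mg/kg/day at 1 and 6 h post-infection and once daily for three more days. Survival was followed for 21 days against infected untreated mice; ≥70% protection at 14 days was scored active.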

Rhizoctonia solani [6] = assay: Example F rice sheath blight; assay type: in vivo; details: Rhizoctonia solani, 144 h, 100 PPM; read-out: disease control rating, Ex. F
Method in brief: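 Compounds, dissolved in acetone at 6% of final volume, were suspended at 100 or 20 ppm in purified water with 250 ppm polyhydric alcohol ester surfactant (TREM 014). Rice seedlings were sprayed with this suspension to run-off.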

Rhizoctonia solani [7] = assay: Example K cotton blight; assay type: in vivo; details: 336 h, 5 kg/ha, read-out: disease control rating, Ex. K
Procedure: […] Seeds and soil were then inoculated with a mixture of sand, cereal and mycelium of the fungus Rhizoctonia solani, causal agent of cotton blight, and incubated in a growth chamber at 30° C. for 14 days. Disease ratings were then made.

Sclerotium rolfsii = assay: Example M southern blight; assay type: in vivo; details: Agroathelia rolfsii, 336 h; 5 kg/ha; read-out: disease control rating, Ex. M
Procedure: […] Seeds and soil were then inoculated with a mixture of sand, cereal and mycelium of the fungus Sclerotium rolfsii, causal agent of sourthern blight, and incubated in a growth chamber at 30° C. for 14 days. Disease ratings were then made.

Row | SMILES | pest or weed control at 100 ppm (Botrytis cinerea) [%] | pest or weed control at 100 ppm (Puccinia recondita) [%] | pest or weed control at 100 ppm (Phytophthora infestans) [%] | pest or weed control at 100 ppm [1] [%] | pest or weed control at 100 ppm (Pyricularia oryzae) [%] | MIC [2] [µg/mL] | MIC [3] [µg/mL] | pest or weed control at 100 ppm [4] [%] | phytotoxicity entry, Ex. J (Pythium aphanadermatum) | pest or weed control at 100 ppm (Plasmorpara viticola) [%] | pest or weed control at 100 ppm (Venturia inaequalis) [%] | responders at 150 mg/kg ([5]; ATCC11651, 168 h, day 7) [%] | responders at 150 mg/kg ([5]; ATCC11651, 336 h, day 14) [%] | responders at 150 mg/kg ([5]; ATCC11651, 504 h, day 21) [%] | pest or weed control at 100 ppm (Rhizoctonia solani [6]) [%] | pest or weed control at 5000 g/ha (Rhizoctonia solani [7]) [%] | pest or weed control at 5000 g/ha (Pythium aphanadermatum) [%] | pest or weed control at 5000 g/ha (Sclerotium rolfsii) [%]
1 | C=C(c1ccc(C)cc1)C(O)(Cn1cncn1)c1ccc(F)cc1 (stereo not shown) [Example 721] | 95 | 100 | 0 | 89 | 18 | 0.4 (≈ 1.24 µM) | 12.5 (≈ 38.7 µM) | 94 | P | 0 | 73 | 100 | 30 | 30 | 100 | – | – | –
2 | C=C(c1ccc(Cl)cc1Cl)C(O)(Cn1cncn1)c1ccc(F)cc1 (stereo not shown) [Example 99] | 89 | 100 | 0 | 100 | 98 | 0.05 (≈ 0.132 µM) | 6.3 (≈ 16.7 µM) | 83 | – | 83 | 100 | 100 | 100 | 40 | 61 | 0 | 0 | –
3 | C=C(c1ccc(F)cc1)C(O)(Cn1cncn1)c1ccc(Cl)cc1 (stereo not shown) [Example 3] | 93 | 100 | 0 | 100 | 5 | ≤ 0.4 | 50 (≈ 145 µM) | 93 | – | 0 | 100 | 100 | 100 | 60 | 93 | 0 | 0 | –
4 | C=C(c1ccccc1)C(O)(Cn1cncn1)c1ccccc1 (stereo not shown) [Example 608] | 98 | 100 | 0 | 100 | 4 | 0.4 (≈ 1.37 µM) | 6.3 (≈ 21.6 µM) | 98 | – | 0 | 87 | 100 | 70 | 20 | 81 | 0 | 0 | –
5 | C=C(c1ccc(Cl)cc1)C(O)(Cn1cncn1)c1ccc(F)cc1 (stereo not shown) [Example 25] | 96 | 97 | 0 | 100 | 31 | 1.6 (≈ 4.65 µM) | 25 (≈ 72.7 µM) | 91 | – | 0 | 100 | 100 | 100 | 50 | 48 | – | 0 | 35
